Reference: paper PMC10508264, “Exploring the antioxidant, antimicrobial, cytotoxic and biothermodynamic properties of novel morpholine derivative bioactive Mn(II), Co(II) and Ni(II) complexes – combined experimental and theoretical measurements towards DNA/BSA/SARS-CoV-2 3CL^Pro” (RSC Medicinal Chemistry, 2023)

Assays:
CT-DNA = assay: DNA binding by UV-vis absorption titration; conditions: for % H (hypochromism): Tris-HCl pH 7.4, 25 °C; for Kb, BH-I (Benesi–Hildebrand method I) / Kb, BH-II (Benesi–Hildebrand method II) / Kb, SK-I (Sakthi–Krause method I) / Kb, SK-II (Sakthi–Krause method II) / Kb, WS-I (Wolfe–Shimmer method I) / Kb, WS-II (Wolfe–Shimmer method II): pH 7.4, 25 °C
Protocol: The DNA-binding experiment was conducted with an electronic absorption spectrophotometer by raising the DNA concentration from zero to 50 μM to the given concentration of all samples (50 μM) in Tris-HCl buffer (5 mM Tris-HCl/50 mM NaCl) with a pH of 7.4 at 25 °C.[13,23–26]
Most medications involve intercalation and groove binding via GC (guanine/cytosine)-rich and AT (adenine/thymine)-rich domains, respectively. The interactions were determined experimentally by electronic absorption spectrum titration. Moreover, intercalating binding is indicated by bathochromic and hypochromic shifts in the absorption spectra, whereas groove binding of the complexes with DNA is indicated by hyperchromic shifts in the titration curve.[61] Generally, four kinds of non-covalent engagements that can be absolutely critical in the interaction of substances with DNA are most frequently illustrated in the literature: (i) involves a negatively charged phosphate fragment as a result of electrostatic interaction; (ii) influences weak van der Waals force attraction/H-bonding; (iii) interaction of a functional moiety with the grooves (major/minor) of the double-stranded DNA as a result of a molecule sticking due to general attraction, or as a result of water or H-bonding expulsion, etc.; (iv) the stacked base pairs of natural DNA are intercalated by hydrophobic forces. Nevertheless, substances are engaged in the reaction because of […] preferred N-7 position and adenine's N-3 location in DNA. The DNA base pairing may also be prevented due to miscoding. All complexes (1–3), including free ligand (HL), were measured both when DNA was present and when it was absent using ultraviolet–visible spectrophotometric absorption titrations in buffer solution with a pH of 7.4 at 25 °C (Fig. 3). In this case, all substances were exposed to two prominent electronic absorption bands of about 260 nm and 335–343 nm, consequent to the π–π* transitions of the phenyl chromophore and MLCT, respectively. While the amount of DNA in each compound rises, the interaction of the chemical substance with DNA base pairs generates noticeable alterations in the strength and wavelength of the intra-ligand charge transfer bands. […] Using Wolfe–Shimmer eqn (1) and (2), Benesi–Hildebrand eqn (3) and (4) and Sakthi–Krause eqn (5) and (6), the observed overall Kb values for all samples were in the following sequence: (2) > (3) > (1) > (HL). […] It is concluded that the co-planarity of the morpholine-linked ligand and complexation of the 2,2′-bipyridine aromatic system with the metal centre promote the ability of the complex to infiltrate DNA base pairs smoothly. Large aromatic systems may also assist the complex to deeply penetrate the core of the phosphate backbone, and those substances may permit the complex to freely penetrate deep into the DNA base pairs. […] The Wolfe–Shimmer eqn (1) and (2),[62] Benesi–Hildebrand eqn (3) and (4),[63] and Sakthi–Krause eqn (5) and (6) were applied to evaluate the Kb results for all samples, which were obtained by modification of the Lineweaver–Burk and Stern–Volmer equations (Table 1).
The Kb values were measured using the Wolfe–Shimmer eqn (1) and (2) from the linear regression plots of [DNA]/(εa − εf) vs. [DNA] M^−1 for method I and (εb − εf)/(εa − εf) vs. 1/[DNA] M^−1 for method II, respectively (Fig. S15 ^†). The Benesi–Hildebrand binding constant (Kb) values were measured using eqn (3) and (4) from the linear regression plots of [1/(Ax − A0)] vs. {1/[DNA]} M^−1 for method I and [(Amax − A0)/(Ax − A0)] vs. {1/[DNA]} M^−1 for method II, respectively (Fig. S16 ^†). The Kb values were estimated using Sakthi–Krause eqn (5) and (6) from the linear regression plots of [A/(A0 − A)] vs. {1/[DNA]} M^−1 for method I (Fig. S17 ^†) and {1/[DNA]} vs. log[A/(A0 − A)] M^−1 for method II (Fig. S18 ^†). In addition, A0 and A represent the absorbance intensity values in the absence and presence of [DNA], respectively. […]

Aspergillus niger = assay: Agar disc diffusion, strain H; type: cell-based; parameters: Inhibition%: concentration or dose not given beside the values; conditions: for Diameter of clear zone inhibition: control 6 mm
Candida albicans = assay: Agar disc diffusion, strain I; type: cell-based; parameters: Inhibition%: concentration or dose not given beside the values; conditions: for Diameter of clear zone inhibition: control 6 mm

SMILES | % H (hypochromism) (CT-DNA) [%] | Kb, BH-I (Benesi–Hildebrand method I) (CT-DNA) [M⁻¹] | Kb, BH-II (Benesi–Hildebrand method II) (CT-DNA) [M⁻¹] | Kb, SK-I (Sakthi–Krause method I) (CT-DNA) [M⁻¹] | Kb, SK-II (Sakthi–Krause method II) (CT-DNA) [M⁻¹] | Kb, WS-I (Wolfe–Shimmer method I) (CT-DNA) [M⁻¹] | Kb, WS-II (Wolfe–Shimmer method II) (CT-DNA) [M⁻¹] | Inhibition% (Aspergillus niger) [%] | Diameter of clear zone inhibition (Aspergillus niger) [mm] | Inhibition% (Candida albicans) [%] | Diameter of clear zone inhibition (Candida albicans) [mm]
[Mn+2].[O-]c1ccccc1N=Cc1ccc(N2CCOCC2)cc1.[O-]c1ccccc1N=Cc1ccc(N2CCOCC2)cc1.c1ccc(-c2ccccn2)nc1 [(1)] | 40.61 | 9942 | 21067 | 11049 | 20389 | 18195 | 20826 | 50 | 12 | 57 | 14
[Co+2].[O-]c1ccccc1N=Cc1ccc(N2CCOCC2)cc1.[O-]c1ccccc1N=Cc1ccc(N2CCOCC2)cc1.c1ccc(-c2ccccn2)nc1 [(2)] | 36.16 | 10468 | 21524 | 14965 | 22526 | 18806 | 21379 | 50 | 12 | 50 | 12
[Ni+2].[O-]c1ccccc1N=Cc1ccc(N2CCOCC2)cc1.[O-]c1ccccc1N=Cc1ccc(N2CCOCC2)cc1.c1ccc(-c2ccccn2)nc1 [(3)] | 43.46 | 18212 | 20938 | 13001 | 20417 | 18207 | 21275 | 50 | 12 | 63 | 16
Oc1ccccc1N=Cc1ccc(N2CCOCC2)cc1 [(HL), 2-(4-morpholinobenzylideneamino)phenol] | 37.13 | 6000 | 19515 | 8775 | 17216 | 15169 | 15480 | 40 | 10 | 40 | 10
